Data on nine molecules can be found in PubChem BioAssay (NCI).

Where “and” joins values, the source holds several entries; their conditions need not be identical. Equal entries are not always repeated.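 Growth conditions: 96-well plates. Treatment: test compound, 48 hours, 5 concentrations. Analysis: linear interpolation between bracketing concentrations; unreached endpoints set to highest concentration. GI50 is the concentration that inhibits growth by half. TGI denotes the concentration required for complete inhibition of growth.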

Test systems include SK-MEL-2 melanoma; HT29 colon; SF-268 CNS; A549 NSCLC; HCT-116 colon; HCT-15 colon; EKVX NSCLC; BT-549 breast; OVCAR-8 ovarian; SN12C renal.
What all share (assay): growth of human tumour cells (NCI), 48 h

Regarding `CCCc1cc(=O)n2c(C(=O)Nc3ccc(F)cc3)c(C(=O)Nc3ccc(F)cc3)sc2n1`, the GI50 was 24.1 µM in the test with SK-MEL-2 melanoma; 47.1 µM with HT29 colon; 18.8 µM in the test with SF-268 CNS; 17.5 µM in the test with A549 NSCLC; 18.3 µM in the test with HCT-116 colon; 89.7 µM with HCT-15 colon. Moreover, the GI50 in the test with EKVX NSCLC is over 160 µM; with BT-549 breast it was over 160 µM; in the test on OVCAR-8 ovarian it was 4.57 µM. Further, the TGI with SK-MEL-2 melanoma is 54.4 µM; with HT29 colon it was over 160 µM; with SF-268 CNS, 95.6 µM; with A549 NSCLC, 40 µM; in the test with HCT-116 colon, over 160 µM; in the test with HCT-15 colon it was over 160 µM. The figures for the TGI with EKVX NSCLC, in the test on BT-549 breast and in the test with OVCAR-8 ovarian were over 160 µM, over 160 µM and 28 µM, respectively.

In the case of `CCCOC(=O)c1c(C)n(C)c2scc[n+]12`, the GI50 in the test on SK-MEL-2 melanoma is 64.1 µM; in the test with HT29 colon, 32.8 µM; in the test on SF-268 CNS, 48 µM; in the test on SN12C renal, 59.5 µM; in the test with HCT-116 colon, 35.8 µM; in the test with HCT-15 colon, over 100 µM. Further, the GI50 in the test on EKVX NSCLC was 13.7 µM; in the test with BT-549 breast it was 35.9 µM; in the test on OVCAR-8 ovarian, 49.2 µM. Further, the TGI in the test with SK-MEL-2 melanoma, in the test on HT29 colon, in the test with SF-268 CNS, with SN12C renal, in the test with HCT-116 colon and in the test on HCT-15 colon was over 100 µM each time. Also, the TGI in the test with EKVX NSCLC, in the test with BT-549 breast and with OVCAR-8 ovarian was over 100 µM throughout.

On to `CC(C)N(Cc1ccc(CN(C(=O)CCl)C(C)C)cc1)C(=O)CCl`, for which the GI50 is 2.36 µM with SK-MEL-2 melanoma; 1.66 µM in the test on SF-268 CNS; 1.49 µM with SN12C renal; 2.57 µM in the test on A549 NSCLC; 1.65 µM in the test on HCT-116 colon; 1.38 µM with HCT-15 colon. The values for the GI50 in the test with EKVX NSCLC, in the test on BT-549 breast and with OVCAR-8 ovarian were 2.36 µM, 1.87 µM and 2.08 µM, respectively. Besides, the TGI with SK-MEL-2 melanoma stood at 5.88 µM; with SF-268 CNS it was 3.49 µM; in the test with SN12C renal, 3.71 µM; in the test with A549 NSCLC, 7.37 µM; in the test on HCT-116 colon, 5.62 µM; in the test with HCT-15 colon it was 3.64 µM. Also, the TGI turned out to be 5.63 µM in the test on EKVX NSCLC, 4.16 µM in the test with BT-549 breast and 6.43 µM with OVCAR-8 ovarian.

`COc1ccccc1S(=O)(=O)Nc1ccc2c3c(cc(CCC(=O)NCCCCNc4cccc5c4C(=O)N(C4CCC(=O)NC4=O)C5=O)cc13)C(=O)N2C` (centres undefined): the GI50 in the test with SK-MEL-2 melanoma is 0.762 µM; in the test with HT29 colon, 3.84 µM; in the test with SF-268 CNS it was 0.317 µM; in the test on SN12C renal, 0.462 µM; with A549 NSCLC, 5.73 µM; with HCT-116 colon it was 3.06 µM. For the same molecule, the GI50 was 18.1 µM with EKVX NSCLC, 0.0874 µM in the test on BT-549 breast and 0.346 µM with OVCAR-8 ovarian. The TGI in the test on SK-MEL-2 melanoma was over 27.4 µM; in the test on HT29 colon, over 100 µM; in the test on SF-268 CNS, over 100 µM; in the test on SN12C renal, over 100 µM; in the test on A549 NSCLC, over 100 µM; in the test with HCT-116 colon, over 100 µM. Further, the TGI in the test on EKVX NSCLC is over 100 µM; with BT-549 breast, 1.56 µM; in the test on OVCAR-8 ovarian, over 100 µM.

Regarding `CN=C1C=CC(=C(c2ccc(N(C)C)cc2)c2ccc(N(C)C)cc2)C=C1`, the GI50 in the test on SK-MEL-2 melanoma is 0.202 µM; in the test on HT29 colon, 0.105 µM; in the test on SF-268 CNS, 0.25 µM; in the test with SN12C renal, 0.163 µM; in the test with A549 NSCLC, 0.048 µM; in the test with HCT-116 colon, 0.116 µM. Besides, the GI50 in the test with HCT-15 colon is 0.367 µM; in the test on EKVX NSCLC it was 0.237 µM; with BT-549 breast, 0.265 µM. In addition, the TGI with SK-MEL-2 melanoma worked out at 0.462 µM; in the test on HT29 colon it was 0.496 µM; in the test on SF-268 CNS it was 1.54 µM; in the test on SN12C renal it was 3.04 µM; in the test on A549 NSCLC it was 1.38 µM; in the test on HCT-116 colon, 1.09 µM. Besides, the TGI in the test with HCT-15 colon was determined as 6.07 µM; in the test on EKVX NSCLC, 2.62 µM; in the test on BT-549 breast it was 1.28 µM.

Consider `CN(C)CCCn1c(=O)c2ccccc2c2cnc3[nH]ccc3c21`, for which the GI50 was 1.79 µM with SK-MEL-2 melanoma; 1.27 µM with HT29 colon; 1.44 µM in the test with SF-268 CNS; 2.17 µM in the test on SN12C renal; 0.486 µM in the test with HCT-116 colon; 2 µM with HCT-15 colon. Also, the GI50 was 2.27 µM in the test with EKVX NSCLC, 2.95 µM with BT-549 breast and 1.43 µM in the test with OVCAR-8 ovarian. Also, the TGI in the test on SK-MEL-2 melanoma was 5.38 µM; with HT29 colon, 8.35 µM; in the test on SF-268 CNS, 5.02 µM; in the test on SN12C renal it was 14.6 µM; with HCT-116 colon, 10.3 µM; in the test with HCT-15 colon, 9.58 µM. The TGI turned out to be 8.43 µM with EKVX NSCLC, 9.58 µM with BT-549 breast and 6.88 µM with OVCAR-8 ovarian.

`Cc1cc(-c2c(F)cc3c4nn([C@H]5CC[C@@H](N(C)C)CC5)c(=O)c-4cn(C4CC4)c3c2F)cc(C)n1`: the GI50 in the test on SK-MEL-2 melanoma was 0.0735 µM; with SF-268 CNS it was 0.0285 µM; in the test on SN12C renal it was 0.0207 µM; with HCT-116 colon it was 0.0391 µM. The TGI was 0.256 µM and 1.94 µM with SK-MEL-2 melanoma; 1.1 µM in the test with HT29 colon; 0.151 µM and 0.89 µM with SF-268 CNS; 0.0888 µM with SN12C renal; 0.356 µM and 1.27 µM with HCT-116 colon; 5.96 µM in the test with EKVX NSCLC. Also, the TGI was 10.8 µM in the test on BT-549 breast and 0.808 µM with OVCAR-8 ovarian.

In the case of `c1ccc(OCCC[P+](c2ccccc2)(c2ccccc2)c2ccccc2)cc1`, the GI50 is 1.56 µM with SK-MEL-2 melanoma; 0.984 µM with HT29 colon; 3.82 µM with SF-268 CNS; 2.61 µM in the test with SN12C renal; 2.36 µM with A549 NSCLC; 1.42 µM in the test with HCT-116 colon. The results for the GI50 in the test on HCT-15 colon, in the test on BT-549 breast and with OVCAR-8 ovarian were 22.2 µM, 1.42 µM and 1.83 µM, respectively. The TGI in the test with SK-MEL-2 melanoma was determined as 4.88 µM; in the test on HT29 colon it was 9.21 µM; with SF-268 CNS, 19.2 µM; in the test on SN12C renal, 12.5 µM; in the test with A549 NSCLC, 20.3 µM; in the test with HCT-116 colon it was 13.4 µM. In addition, the TGI was over 100 µM in the test on HCT-15 colon, 17.1 µM in the test with BT-549 breast and 12.8 µM in the test on OVCAR-8 ovarian.

As to `O=C(NNc1ccc(Cl)cc1)C1CCC(CNS(=O)(=O)c2ccccc2Cl)CC1` (centres undefined), the GI50 in the test on SK-MEL-2 melanoma is 30.9 µM; with SF-268 CNS, 8.31 µM; in the test with SN12C renal, 14.7 µM; with A549 NSCLC, 8.99 µM; in the test with HCT-15 colon it was 5.68 µM; with EKVX NSCLC it was 11 µM. In addition, the GI50 in the test with BT-549 breast and with OVCAR-8 ovarian was 21.6 µM in each case. The TGI in the test on SK-MEL-2 melanoma was over 100 µM; in the test with SF-268 CNS, over 100 µM; in the test on SN12C renal, 50.9 µM; with A549 NSCLC it was over 100 µM; with HCT-15 colon, 61.5 µM; in the test with EKVX NSCLC, 56.2 µM. For the same molecule, the TGI in the test on BT-549 breast is 52.6 µM; with OVCAR-8 ovarian, over 100 µM.
